The target of assay [1] is T1, α1B Human Adrenergic Receptor (Homo sapiens, UniProt P35368).
T1 construct: The entire coding region of α1B (1563 bp); expressed in transfected cells
T1 sequence (P35368 1-520): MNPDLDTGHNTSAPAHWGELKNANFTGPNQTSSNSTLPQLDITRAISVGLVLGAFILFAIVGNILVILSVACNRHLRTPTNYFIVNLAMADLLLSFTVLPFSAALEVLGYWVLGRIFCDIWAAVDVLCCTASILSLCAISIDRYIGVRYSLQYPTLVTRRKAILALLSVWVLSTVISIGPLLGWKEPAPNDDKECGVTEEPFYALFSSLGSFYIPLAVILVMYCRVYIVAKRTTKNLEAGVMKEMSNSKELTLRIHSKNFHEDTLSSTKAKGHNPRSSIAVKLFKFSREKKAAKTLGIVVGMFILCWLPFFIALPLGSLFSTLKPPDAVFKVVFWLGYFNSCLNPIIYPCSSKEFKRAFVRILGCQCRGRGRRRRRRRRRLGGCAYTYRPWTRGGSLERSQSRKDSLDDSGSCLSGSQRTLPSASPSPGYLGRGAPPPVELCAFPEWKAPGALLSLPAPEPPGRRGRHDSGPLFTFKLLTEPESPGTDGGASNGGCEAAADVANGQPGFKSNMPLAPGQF
The assay can be described thus: Radioligand binding, [3H]prazosin, cloned human α1B adrenergic receptor. In short, it runs like this:
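Membranes from stably transfected LM(tk−) cells, resuspended in 50 mM Tris-HCl, 1 mM MgCl2, 0.1% ascorbic acid, pH 7.5, were incubated with 0.5 nM [3H]prazosin for 20 min at 37° C. Nonspecific binding defined with 10 μM phentolamine; bound ligand separated by GF/B filtration.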

The target of assay [2] is T2, α1C Human Adrenergic Receptor (Homo sapiens, UniProt P35348).
T2 construct: The entire coding region of α1C (1401 bp); expressed in transfected cells
T2 sequence (P35348 1-466): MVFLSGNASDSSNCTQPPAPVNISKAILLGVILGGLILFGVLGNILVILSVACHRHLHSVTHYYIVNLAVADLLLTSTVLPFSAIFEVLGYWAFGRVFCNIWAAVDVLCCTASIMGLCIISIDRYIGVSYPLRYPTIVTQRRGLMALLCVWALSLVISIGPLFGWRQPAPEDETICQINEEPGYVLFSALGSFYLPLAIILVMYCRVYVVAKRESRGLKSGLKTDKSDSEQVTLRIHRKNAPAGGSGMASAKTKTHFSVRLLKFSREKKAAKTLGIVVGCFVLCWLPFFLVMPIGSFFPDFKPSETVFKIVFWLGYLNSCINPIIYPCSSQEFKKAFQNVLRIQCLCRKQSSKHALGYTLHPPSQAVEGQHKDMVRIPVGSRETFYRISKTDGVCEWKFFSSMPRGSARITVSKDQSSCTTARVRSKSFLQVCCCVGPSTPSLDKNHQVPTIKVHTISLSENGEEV
The assay can be described thus: Radioligand binding, [3H]prazosin, cloned human α1C adrenergic receptor. In a few lines: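 Read-out is filter-retained [3H]prazosin (0.5 nM) bound to membranes of LM(tk−) cells stably carrying the human α1C receptor. Incubation ran 20 min at 37° C. at pH 7.5, with 10 μM phentolamine marking nonspecific binding.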

In assay [3] the target is T3, α2B receptor (Homo sapiens, UniProt P18089).
T3 construct: host or cells: LM(tk-) cells, line L-NGC-α2B
T3 sequence (P18089 1-450): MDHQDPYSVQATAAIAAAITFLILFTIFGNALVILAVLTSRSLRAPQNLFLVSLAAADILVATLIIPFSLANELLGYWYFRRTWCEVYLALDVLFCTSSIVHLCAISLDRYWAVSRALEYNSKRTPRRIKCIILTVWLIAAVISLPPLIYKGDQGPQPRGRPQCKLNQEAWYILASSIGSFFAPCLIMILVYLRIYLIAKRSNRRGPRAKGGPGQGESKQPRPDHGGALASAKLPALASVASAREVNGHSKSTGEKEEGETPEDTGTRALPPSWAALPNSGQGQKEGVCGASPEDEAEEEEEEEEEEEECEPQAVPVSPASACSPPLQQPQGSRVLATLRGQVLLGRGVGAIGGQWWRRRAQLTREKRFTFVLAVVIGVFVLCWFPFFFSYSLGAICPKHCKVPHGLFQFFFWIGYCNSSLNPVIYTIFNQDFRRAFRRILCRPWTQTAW
The assay can be described thus: Competition binding, [3H]rauwolscine, human α2B receptor. In a few lines: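 Using 25 mM glycylglycine buffer at pH 7.6 (room temperature), membranes from LM(tk−) cells carrying α2A, α2B or α2C were competed against 0.5 nM [3H]rauwolscine to equilibrium. Separation was by GF/B filtration; phentolamine (10 μM) set nonspecific binding.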

The mark [4] stands for this setting: cloned human α1B receptor, LM(tk−) cell membranes.
[5] abbreviates: cloned human α1C receptor, LM(tk−) cell membranes.
The mark [6] stands for this setting: [3H]rauwolscine, human α2B receptor, LM(tk−) cells.
[7] abbreviates: cloned human receptor, LM(tk-) cell membranes, mean, read-out: PKi alpha-1 1b (converted).
Setting [8] is: cloned human receptor, LM(tk-) cell membranes, mean, read-out: PKi alpha-1 1c (converted).
Setting [9] is: [3H]rauwolscine, human receptor, LM(tk-) cell lysates, mean, read-out: PKi alpha-2 2b (converted).
The mark [10] stands for this setting: cloned human receptor in LM(tk-) cell membranes, SEM and n in lines below, read-out: pKi alpha-1 1b (converted).
The mark [11] stands for this setting: cloned human receptor in LM(tk-) cell membranes, SEM and n in lines below, read-out: pKi alpha-1 1c (converted).
[12] abbreviates: [3H]rauwolscine, LM(tk-) cell line L-NGC-α2B, SEM and n in lines below, read-out: pKi alpha-2 2b (converted).
Where [13] appears, read: cloned human receptor in LM(tk-) cell membranes, SEM and n in lines below.

Where a name gives a salt, the structure may show the parent alone. Read-outs that look alike come from different tables or passages of the source.

As to `CCOC(=O)C1=C(CNCCCN2CCC(c3ccccc3)(c3ccccc3)CC2)NC(C)=C(C(=O)OC)C1c1ccc([N+](=O)[O-])cc1.Cl.O` (stereo not drawn) [Example 90, 3-Ethoxycarbonyl-1,4-dihydro-5-methoxycarbonyl-6-methyl-4-(4-nitro)phenyl-2-(N-(3-(4,4,-diphenylpiperidin-1-yl)propyl)amino)methylpyridine, hydrochloride hydrate], in assay [1] (setting [4]), the “pKi alpha-1 1b” value is given as 6.87. Moreover, the “pKi alpha-1 1c” value in assay [2] (setting [5]) is reported as 7.56. The “pKi alpha-2 2b” value in assay [3] (setting [6]) is on record as 6.04.
Regarding `CCC1=C(C(=O)NC)C(c2ccc([N+](=O)[O-])cc2)C(C(=O)NCCCN2CCC(C(=O)OC)(c3ccccc3)CC2)=C(CCCCOC)N1` (stereo not drawn) [Example 174, 6-Ethyl-1,4-dihydro-2-(4-methoxybutyl)-3-{N-[3-(4-methoxycarbonyl-4-phenylpiperidin-1-yl)propyl]}carboxamido-5-(N-methyl)carboxamido-4-(4-nitrophenyl)pyridine], the figures for the Ki in assay [1] (setting [7]), in assay [2] (setting [8]) and in assay [3] (setting [9]) were 1910 nM, 4.07 nM and 955 nM, respectively.
On to `COC(=O)C1=C(C)NC(C)=C(C(=O)NCCCN2CCC(c3ccccc3)CC2)C1c1ccc([N+](=O)[O-])cc1` (single isomer, unassigned; (+)) [(+)-45, 1,4-Dihydro-3-methoxycarbonyl-2,6-dimethyl-4-(4-nitrophenyl)-5-{N-[3-(4-phenylpiperidin-1-yl)propyl]}carboxamidopyridine hydrochloride hemihydrate], for which the figures for the Ki in assay [1] (setting [10]), in assay [2] (setting [11]) and in assay [3] (setting [12]) were 57.5 nM, 9.33 nM and 91.2 nM, respectively.
For the compound `CCC1=C(C(N)=O)C(c2ccc([N+](=O)[O-])cc2)C(C(=O)NC2CCN(CCc3c[nH]c4ccccc34)CC2)=CN1CC` (stereo not drawn) [Example 122, 5-Carboxamido-1,4-dihydro-3-(N-{1-[2-(3-indolyl)ethyl]piperidin-4-yl}) carboxamido-1,6-diethyl-4-(4-nitrophenyl)pyridine], the “pKi alpha-1 1b” value in assay [1] (setting [4]) is recorded as 7.57. In assay [2] (setting [5]), the “pKi alpha-1 1c” value amounted to 7.71. For the same compound, the “pKi alpha-2 2b” value in assay [3] (setting [6]) was 7.35.
In the case of `CC1=C(C(N)=O)C(c2cccc([N+](=O)[O-])c2)C(C(=O)NCCCN2CCC(c3ccccc3)CC2)=C(C)N1` (stereo not drawn) [Example 62], the results for the Ki in assay [1] (setting [10]), in assay [2] (setting [11]) and in assay [3] (setting [12]) were 316 nM, 2.63 nM and 57.5 nM, respectively.
`COC(=O)C1=C(C)NC2=C(C(=O)N(CCCN3CCC(c4ccccc4)(c4ccccc4)CC3)C2)C1c1ccc([N+](=O)[O-])cc1.Cl.O` (stereo not drawn) [Example 91, 1,4,7,7-Tetrahydro-3-methoxycarbonyl-6-methyl-5-oxo-4-(4-nitrophenyl)-6-(3-(4,4-diphenylpiperidin-1-yl)) propylpyrrolo[3,4-b]pyridine, hydrochloride hydrate]: in assay [1] (setting [4]), the “pKi alpha-1 1b” value was 6.54. For the same compound, the “pKi alpha-1 1c” value in assay [2] (setting [5]) amounted to 8.04. In assay [3] (setting [6]), the “pKi alpha-2 2b” value was found to be 6.00.
`CCC1=C(C(=O)NCCCCN2CCC(c3ccccc3)CC2)C(c2ccc([N+](=O)[O-])cc2)C(C(N)=O)=C(C)N1.Cl.O` (stereo not drawn) [Example 77, 5-Carboxamido-2-ethyl-1,4-dihydro-6-methyl-4-(4-nitro)phenyl-3-(N-(4-(4-phenylpiperidin-1-yl)butyl))carboxamidopyridine hydrochloride hydrate]: the “pKi alpha-1 1b” value in assay [1] (setting [13]) is 7.16. The “pKi alpha-1 1c” value in assay [2] (setting [13]) was determined as 8.30. Besides, the “pKi alpha-2 2b” value in assay [3] ([3H]rauwolscine, LM(tk-) cell line L-NGC-α2B, SEM and n in lines below) came to 7.08.
As for `COC(=O)C1=C(C)NC(C)=C(C(=O)OCCCN2CCCCC2)C1c1ccc([N+](=O)[O-])cc1` (stereo not drawn) [Example 50, 1,4-Dihydro-5-methoxycarbonyl-2,6-dimethyl-4-(4-nitrophenyl)-3-[3-(piperidin-1-yl)propoxy]carbonylpyridine hydrochloride etherate], the Ki in assay [1] (setting [10]) was 3020 nM; in assay [2] (setting [11]), 85.1 nM; in assay [3] (setting [12]) it was 2750 nM.
Consider `CCC1=C(C(N)=O)C(c2ccc([N+](=O)[O-])cc2)C(C(=O)NCCCN2CCC(C(=O)OC)(c3ccccc3)CC2)=C(CCCCN)N1` (stereo not drawn) [Example 166, 2-(4-Aminobutyl)-5-carboxamido-6-ethyl-1,4-dihydro-3-{N-[3-(4-methoxycarbonyl-4-phenylpiperidin-1-yl)propyl]}carboxamido-4-(4-nitrophenyl)pyridine], for which the Ki in assay [1] (setting [7]) was 1320 nM; in assay [2] (setting [8]) it was 1.29 nM; in assay [3] (setting [9]), 3890 nM.
For the compound `CCC1=C(C(=O)NC)C(c2ccc([N+](=O)[O-])cc2)C(C(=O)NCCCN2CCC(c3ccccc3)(c3ccccc3)CC2)=C(COCCN)N1` (stereo not drawn) [Example 225, 2-((2-Aminoethyl)oxy)methyl-6-ethyl-1,4-dihydro-5-N-methylcarboxamido-4-(4-nitro)phenyl-3-(3-(N-(4,4-diphenylpiperidin-1-yl)propyl))carboxamidopyridine], the Ki in assay [1] (setting [7]) is 501 nM; in assay [2] (setting [8]), 3.98 nM; in assay [3] (PKi alpha-2 2b) it was 2510 nM.
On to `COC(=O)C1=C(C)NC(c2ccoc2)=C(C(=O)NCCCN2CCC(c3ccccc3)CC2)C1c1ccc([N+](=O)[O-])cc1` (stereo not drawn) [Example 65, 2-(Furan-3-yl)-1,4-dihydro-5-methoxycarbonyl-6-methyl-4-(4-nitrophenyl)-5-{N-[3-(4-phenylpiperidin-1-yl)propyl]}carboxamidopyridine hydrochloride hydrate], for which the results for the Ki in assay [1] (setting [10]), in assay [2] (setting [11]) and in assay [3] (setting [12]) were 57.5 nM, 1.05 nM and 97.7 nM, respectively.
As to `COC(=O)C1=C(C)NC(C)=C(C(=O)NCCCN2CCC(c3ccccc3)CC2)C1c1ccc([N+](=O)[O-])cc1` (racemic) [(±)-45, (±)-1,4-Dihydro-3-methoxycarbonyl-2,6-dimethyl-4-(4-nitrophenyl)-5-{N-[3-(4-phenylpiperidin-1-yl)propyl]}carboxamidopyridine hydrochloride hemihydrate], the Ki was 13.5 nM in assay [1] (setting [10]), 0.234 nM in assay [2] (setting [11]) and 214 nM in assay [3] (setting [12]).
On to `CCC1=C(C(=O)NC)C(c2ccc([N+](=O)[O-])cc2)C(C(=O)NCCCN2CCC(C(=O)OC)(c3ccccc3)CC2)=C(CC)N1` (stereo not drawn) [Example 179, 2,6-Diethyl-1,4-dihydro-3-{N-[3-(4-methoxycarbonyl-4-phenyl-piperidin-1-yl)propyl]}carboxamido-5-(N-methyl)carboxamido-4-(4-nitrophenyl)pyridine], for which the Ki in assay [1] (setting [7]) was 1070 nM; in assay [2] (setting [8]) it was 3.31 nM; in assay [3] (PKi alpha-2 2b), 1860 nM.
